# Data as given in patent US9701962B2, “Hydrophobically modified antisense oligonucleotides comprising a ketal group” (Institut National de la Sante et de la Recherche Medicale …, priority 2013, dated 2017).
# Strand notation (5' to 3'): a small letter for the sugar, then the base; units joined by * are phosphorothioate-linked, units joined directly phosphodiester-linked; [ ] holds rarer units or linkages, { } end groups; capitals alone tell only the bases. {(C15)2U} = uridine bearing a ketal whose carbon carries two C15 hydrocarbon chains (palmitone ketal); {C8F17} = hydrophobic mono-chain with C8F17 fluorocarbon moiety; d = 2'-deoxy (DNA)
# How the values were obtained:
# [1] = test system: TCTP protein and cell growth; assay: Screening of ASOs targeting TCTP mRNA for the lead sequence; format: cell-based, human; settings: 15 sequences tested
# Protocol: The design, synthesis and screening of ASOs targeting TCTP mRNA were performed to determine the lead sequence. Among the 27 sequences, 12 were withdrawn (lack of specificity, high GC percentage) and 15 have been tested among which, 3 have been selected (#10 of sequence SEQ ID NO: 2, #14 of sequence SEQ ID NO: 7, #15 of sequence SEQ ID NO: 6) for their efficiency to inhibit TCTP protein and cell growth.
# TCTP protein = TCTP protein expression by western blot in transfected PC-3 cells; format: cell-based, human; settings: for inhibition of TCTP protein expression over a long period: 6 days after transfection
# Protocol: The CR prostate cancer cell line PC-3 was purchased from the American Type Culture Collection (Rockville, Md., USA). The cells were maintained in Dulbecco's Modified Eagle's Medium (Invitrogen, Cergy Pontoise, France), supplemented with 10% fetal calf serum (FCS).
# Prostatic cell line were transfected with ASO#15PD, ASO#15PTO, LASO#15PD, LASO#15PTO and LASO#15LNA at various concentrations (from 30 nM to 100 nM), in OptiMEM® medium (Invitrogen), without serum and in the presence or not of Oligofectamine™ transfection reagent (Invitrogen), according to the manufacturer's instructions.
# Serum was added 4 hours after transfection. Two or three days after transfection, the level of TCTP protein expression and GAPDH (used as housekeeping gene) were determined by performing western blotting.
# Western Blot analysis was performed as described previously (Rocchi et al., 2004, Cancer Res. 64:6595-602) with 1:2000 rabbit TCTP polyclonal antibody (Abcam Inc., Cambridge, UK). Loading levels were normalized using 1:5000 rabbit anti-glyceraldehyde-3-phosphate dehydrogenase polyclonal (Abcam Inc.).
# Prostatic cell line were transfected with FASO#15PTO at 100 nM, in OptiMEM® medium (Invitrogen), without serum and in the presence or not of Oligofectamine™ transfection reagent (Invitrogen), according to the manufacturer's instructions.
# cell membrane = assay: Penetration of the cell membrane; format: cell-based; settings: compared with ASO#15PTO
Substance,efficiency to inhibit TCTP protein and cell growth [1],inhibition of TCTP protein expression over a long period (TCTP protein),also measured
"5′-ACCAATGAGCGAGTCATCAA-3′ (antisense (5'-ACCAATGAGCGAGTCATCAA-3'); as printed in the source, key not given here) [#10]",selected,,
"Flurocarbon 5′AAC TTG TTT CCT GCA GGT GA3′ (DNA {C8F17}-dA*dA*dC*dT*dT*dG*dT*dT*dT*dC*dC*dT*dG*dC*dA*dG*dG*dT*dG*dA) [FASO#15PTO, reference compound]",,,"inhibition of TCTP protein expression (TCTP protein; PC-3, 100 nM, absence of Oligofectamine, 3 days after transfection): incapable of inhibiting; inhibition of TCTP protein expression (TCTP protein; PC-3, 100 nM, presence of Oligofectamine, 3 days after transfection): incapable of inhibiting"
ASO#15PTO: DNA of sequence SEQ ID NO: 6 with a phosphorothiorate backbone (DNA dA*dA*dC*dT*dT*dG*dT*dT*dT*dC*dC*dT*dG*dC*dA*dG*dG*dT*dG*dA) [reference compound],,not the case,
(C15)2U*5′AAC TTG TTT CCT GCA GGT GA3′ (DNA {(C15)2U}*dA*dA*dC*dT*dT*dG*dT*dT*dT*dC*dC*dT*dG*dC*dA*dG*dG*dT*dG*dA) [LASO#15PTO],,strong to complete inhibition,"inhibition of TCTP protein expression (TCTP protein; PC-3, in absence of transfection agent, 3 days after transfection): able to inhibit; inhibition of TCTP protein expression (TCTP protein; PC-3, in the presence of Oligofectamine, 30-100 nM, 2 or 3 days after transfection): most efficient; speed of penetrating the cell membrane (cell membrane): more quickly than ASO#15PTO"
"5′-TGGTTCATGACAATATCGAC-3′ (antisense (5'-TGGTTCATGACAATATCGAC-3'); as printed in the source, key not given here) [#14]",selected,,
"5′-AACTTGTTTCCTGCAGGTGA-3′ (antisense (5'-AACTTGTTTCCTGCAGGTGA-3'); as printed in the source, key not given here) [#15]",selected,,
